From PubChem BioAssay (NCI)
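These data come from cells grown in 96-well plates and exposed to compound for 48 hours at five concentrations. GI50: concentration for 50% inhibition of growth. TGI is the concentration that stops growth completely.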

Key:
Assay in all cases: growth of human tumour cells (NCI), 48 h
SF-295 CNS = test system: SF-295 CNS
HCT-15 colon = test system: HCT-15 colon
OVCAR-5 ovarian = test system: OVCAR-5 ovarian
K-562 leukemia = test system: K-562 leukemia
OVCAR-8 ovarian = test system: OVCAR-8 ovarian
KM12 colon = test system: KM12 colon
HOP-92 NSCLC = test system: HOP-92 NSCLC
SN12C renal = test system: SN12C renal
786-0 renal = test system: 786-0 renal
MCF7 breast = test system: MCF7 breast
HCC-2998 colon = test system: HCC-2998 colon
UACC-62 melanoma = test system: UACC-62 melanoma
MDA-MB-435 = test system: MDA-MB-435
NCI/ADR-RES ovarian = test system: NCI/ADR-RES ovarian
MALME-3M melanoma = test system: MALME-3M melanoma
UACC-257 melanoma = test system: UACC-257 melanoma
LOX IMVI melanoma = test system: LOX IMVI melanoma
OVCAR-4 ovarian = test system: OVCAR-4 ovarian
HL-60(TB) leukemia = test system: HL-60(TB) leukemia
UO-31 renal = test system: UO-31 renal
NCI-H522 lung = test system: NCI-H522 lung
PC-3 prostate = test system: PC-3 prostate
SF-268 CNS = test system: SF-268 CNS
SR leukemia = test system: SR leukemia
TK-10 renal = test system: TK-10 renal
NCI-H460 lung = test system: NCI-H460 lung
SW-620 colon = test system: SW-620 colon
NCI-H23 lung = test system: NCI-H23 lung
HCT-116 colon = test system: HCT-116 colon
CCRF-CEM leukemia = test system: CCRF-CEM leukemia
MOLT-4 leukemia = test system: MOLT-4 leukemia
EKVX NSCLC = test system: EKVX NSCLC
SK-MEL-28 melanoma = test system: SK-MEL-28 melanoma
SF-539 CNS = test system: SF-539 CNS
A549 NSCLC = test system: A549 NSCLC
CAKI-1 renal = test system: CAKI-1 renal
COLO 205 colon = test system: COLO 205 colon
MDA-MB-231 breast = test system: MDA-MB-231 breast
NCI-H226 lung = test system: NCI-H226 lung
IGROV1 ovarian = test system: IGROV1 ovarian
BT-549 breast = test system: BT-549 breast
SK-MEL-2 melanoma = test system: SK-MEL-2 melanoma
HOP-62 NSCLC = test system: HOP-62 NSCLC
HT29 colon = test system: HT29 colon
OVCAR-3 ovarian = test system: OVCAR-3 ovarian
DU-145 prostate = test system: DU-145 prostate
SNB-19 CNS = test system: SNB-19 CNS
RXF 393 renal = test system: RXF 393 renal
ACHN renal = test system: ACHN renal
RPMI-8226 leukemia = test system: RPMI-8226 leukemia
A498 renal = test system: A498 renal
U251 CNS = test system: U251 CNS
HS 578T breast = test system: HS 578T breast
SK-OV-3 ovarian = test system: SK-OV-3 ovarian
SK-MEL-5 melanoma = test system: SK-MEL-5 melanoma
M14 melanoma = test system: M14 melanoma

SMILES: COc1ccc(-c2noc(C(=O)O)c2-c2cc(OC)c(OC)c(OC)c2)cc1
- GI50 (SF-295 CNS): 1.57 µM
- TGI (SF-295 CNS): > 100 µM
- GI50 (HCT-15 colon): 0.881 µM
- TGI (HCT-15 colon): > 100 µM
- GI50 (OVCAR-5 ovarian): 5.82 µM
- TGI (OVCAR-5 ovarian): > 100 µM
- GI50 (K-562 leukemia): 0.609 µM
- TGI (K-562 leukemia): > 100 µM
- GI50 (OVCAR-8 ovarian): 5.61 µM
- TGI (OVCAR-8 ovarian): > 100 µM
- GI50 (KM12 colon): 0.595 µM
- TGI (KM12 colon): > 100 µM
- GI50 (HOP-92 NSCLC): 3.54 µM
- TGI (HOP-92 NSCLC): > 100 µM
- GI50 (SN12C renal): 37.2 µM
- TGI (SN12C renal): > 100 µM
- GI50 (786-0 renal): 4.85 µM
- TGI (786-0 renal): > 100 µM
- GI50 (MCF7 breast): 1.34 µM
- TGI (MCF7 breast): > 100 µM
- GI50 (HCC-2998 colon): 5.75 µM
- TGI (HCC-2998 colon): > 100 µM
- GI50 (UACC-62 melanoma): 11.1 µM
- TGI (UACC-62 melanoma): > 100 µM
- GI50 (MDA-MB-435): 0.306 µM
- TGI (MDA-MB-435): 1.1 µM
- GI50 (NCI/ADR-RES ovarian): 1.47 µM
- TGI (NCI/ADR-RES ovarian): > 100 µM
- GI50 (MALME-3M melanoma): 8.02 µM
- TGI (MALME-3M melanoma): > 100 µM
- GI50 (UACC-257 melanoma): > 100 µM
- TGI (UACC-257 melanoma): > 100 µM
- GI50 (LOX IMVI melanoma): 5.12 µM
- TGI (LOX IMVI melanoma): > 100 µM
- GI50 (OVCAR-4 ovarian): 9.53 µM
- TGI (OVCAR-4 ovarian): > 100 µM
- GI50 (HL-60(TB) leukemia): 2.19 µM
- TGI (HL-60(TB) leukemia): 6.41 µM
- GI50 (UO-31 renal): 5.45 µM
- TGI (UO-31 renal): > 100 µM
- GI50 (NCI-H522 lung): 1.59 µM
- TGI (NCI-H522 lung): > 100 µM
- GI50 (PC-3 prostate): 1.33 µM
- TGI (PC-3 prostate): > 100 µM
- GI50 (SF-268 CNS): 7.63 µM
- TGI (SF-268 CNS): > 100 µM
- GI50 (SR leukemia): 0.402 µM
- TGI (SR leukemia): > 100 µM
- GI50 (TK-10 renal): > 100 µM
- TGI (TK-10 renal): > 100 µM
- GI50 (NCI-H460 lung): 2.52 µM
- TGI (NCI-H460 lung): > 100 µM
- GI50 (SW-620 colon): 1.53 µM
- TGI (SW-620 colon): > 100 µM
- GI50 (NCI-H23 lung): 9.17 µM
- TGI (NCI-H23 lung): > 100 µM
- GI50 (HCT-116 colon): 0.752 µM
- TGI (HCT-116 colon): > 100 µM
- GI50 (CCRF-CEM leukemia): 3.52 µM
- TGI (CCRF-CEM leukemia): > 100 µM
- GI50 (MOLT-4 leukemia): 4.91 µM
- TGI (MOLT-4 leukemia): > 100 µM
- GI50 (EKVX NSCLC): 4.77 µM
- TGI (EKVX NSCLC): > 100 µM
- GI50 (SK-MEL-28 melanoma): 37.3 µM
- TGI (SK-MEL-28 melanoma): > 100 µM
- GI50 (SF-539 CNS): 2.45 µM
- TGI (SF-539 CNS): 20.5 µM
- GI50 (A549 NSCLC): 4.75 µM
- TGI (A549 NSCLC): > 100 µM
- GI50 (CAKI-1 renal): 2.35 µM
- TGI (CAKI-1 renal): > 100 µM
- GI50 (COLO 205 colon): 1.95 µM
- TGI (COLO 205 colon): 9.49 µM
- GI50 (MDA-MB-231 breast): 7.66 µM
- TGI (MDA-MB-231 breast): > 100 µM
- GI50 (NCI-H226 lung): > 100 µM
- TGI (NCI-H226 lung): > 100 µM
- GI50 (IGROV1 ovarian): 4.91 µM
- TGI (IGROV1 ovarian): > 100 µM
- GI50 (BT-549 breast): 17.9 µM
- TGI (BT-549 breast): > 100 µM
- GI50 (SK-MEL-2 melanoma): 5.9 µM
- TGI (SK-MEL-2 melanoma): > 100 µM
- GI50 (HOP-62 NSCLC): 3.82 µM
- TGI (HOP-62 NSCLC): > 100 µM
- GI50 (HT29 colon): 1.5 µM
- TGI (HT29 colon): > 100 µM
- GI50 (OVCAR-3 ovarian): 1.71 µM
- TGI (OVCAR-3 ovarian): > 100 µM
- GI50 (DU-145 prostate): 3.48 µM
- TGI (DU-145 prostate): > 100 µM
- GI50 (SNB-19 CNS): 6.75 µM
- TGI (SNB-19 CNS): > 100 µM
- GI50 (RXF 393 renal): 1.94 µM
- TGI (RXF 393 renal): 6.56 µM
- GI50 (ACHN renal): 7.42 µM
- TGI (ACHN renal): > 100 µM
- GI50 (RPMI-8226 leukemia): 4.01 µM
- TGI (RPMI-8226 leukemia): > 100 µM
- GI50 (A498 renal): 1.43 µM
- TGI (A498 renal): 7.02 µM
- GI50 (U251 CNS): 4.65 µM
- TGI (U251 CNS): > 100 µM
- GI50 (HS 578T breast): 3.38 µM
- TGI (HS 578T breast): > 100 µM
- GI50 (SK-OV-3 ovarian): 3.9 µM
- TGI (SK-OV-3 ovarian): > 100 µM
- GI50 (SK-MEL-5 melanoma): 1.3 µM
- TGI (SK-MEL-5 melanoma): > 100 µM

SMILES: COC(=O)[C@H]1C=NN[C@@H]1C(=O)N1[C@H]2CC3CC[C@@]2(CS1(=O)=O)C3(C)C
- TGI (SF-295 CNS): > 100 µM
- TGI (HCT-15 colon): > 100 µM
- TGI (OVCAR-5 ovarian): > 100 µM
- TGI (K-562 leukemia): > 100 µM
- TGI (OVCAR-8 ovarian): > 100 µM
- TGI (KM12 colon): > 100 µM
- TGI (HOP-92 NSCLC): > 100 µM
- TGI (SN12C renal): > 100 µM
- TGI (MCF7 breast): > 100 µM
- TGI (HCC-2998 colon): > 100 µM
- TGI (MDA-MB-435): > 100 µM
- TGI (NCI/ADR-RES ovarian): > 100 µM
- TGI (MALME-3M melanoma): > 100 µM
- TGI (UACC-257 melanoma): > 100 µM
- TGI (M14 melanoma): > 100 µM
- TGI (LOX IMVI melanoma): > 100 µM
- TGI (OVCAR-4 ovarian): > 100 µM
- TGI (HL-60(TB) leukemia): > 100 µM
- TGI (UO-31 renal): > 100 µM
- TGI (NCI-H522 lung): > 100 µM
- TGI (PC-3 prostate): > 100 µM
- TGI (SF-268 CNS): > 100 µM
- TGI (SR leukemia): > 100 µM
- TGI (TK-10 renal): > 100 µM
- TGI (NCI-H460 lung): > 100 µM
- TGI (SW-620 colon): > 100 µM
- TGI (NCI-H23 lung): > 100 µM
- TGI (HCT-116 colon): > 100 µM
- TGI (CCRF-CEM leukemia): > 100 µM
- TGI (MOLT-4 leukemia): > 100 µM
- TGI (EKVX NSCLC): > 100 µM
- TGI (SK-MEL-28 melanoma): > 100 µM
- TGI (SF-539 CNS): > 100 µM
- TGI (A549 NSCLC): > 100 µM
- TGI (CAKI-1 renal): > 100 µM
- TGI (COLO 205 colon): > 100 µM
- TGI (MDA-MB-231 breast): > 100 µM
- TGI (NCI-H226 lung): > 100 µM
- TGI (IGROV1 ovarian): > 100 µM
- TGI (BT-549 breast): > 100 µM
- TGI (SK-MEL-2 melanoma): > 100 µM
- TGI (HOP-62 NSCLC): > 100 µM
- TGI (DU-145 prostate): > 100 µM
- TGI (SNB-19 CNS): > 100 µM
- TGI (ACHN renal): > 100 µM
- TGI (RPMI-8226 leukemia): > 100 µM
- TGI (A498 renal): > 100 µM
- TGI (U251 CNS): > 100 µM
- TGI (HS 578T breast): > 100 µM
- TGI (SK-OV-3 ovarian): > 100 µM
- TGI (SK-MEL-5 melanoma): > 100 µM

SMILES: COc1cc(/C=C/C(=O)c2c(C)nc3ccccc3c2/C=C/c2ccccc2)cc(OC)c1OC
- GI50 (K-562 leukemia): 0.827 µM
- TGI (K-562 leukemia): > 100 µM
- GI50 (OVCAR-8 ovarian): 1.78 µM
- TGI (OVCAR-8 ovarian): > 100 µM
- GI50 (LOX IMVI melanoma): 1.42 µM
- TGI (LOX IMVI melanoma): 2.78 µM
- GI50 (HL-60(TB) leukemia): 1.63 µM
- TGI (HL-60(TB) leukemia): 6 µM
- GI50 (SR leukemia): 1.14 µM
- TGI (SR leukemia): 6.54 µM
- GI50 (NCI-H460 lung): 1.86 µM
- TGI (NCI-H460 lung): 4.96 µM
- GI50 (HCT-116 colon): 0.514 µM
- TGI (HCT-116 colon): 1.91 µM
- GI50 (CCRF-CEM leukemia): 2.09 µM
- TGI (CCRF-CEM leukemia): > 100 µM
- GI50 (MOLT-4 leukemia): 2.21 µM
- TGI (MOLT-4 leukemia): 8.61 µM
- GI50 (MDA-MB-231 breast): 2.15 µM
- TGI (MDA-MB-231 breast): > 100 µM
- GI50 (HT29 colon): 1.87 µM
- TGI (HT29 colon): > 100 µM
- GI50 (RPMI-8226 leukemia): 2.21 µM
- TGI (RPMI-8226 leukemia): > 100 µM
- GI50 (HS 578T breast): 4.2 µM
- TGI (HS 578T breast): > 100 µM
